Assay results as given in article PMC6776562, “Inhibition of Rac1-dependent forgetting alleviates memory deficits in animal models of Alzheimer’s disease” (Protein & Cell, 2019).

Tests used:
Aβ42 = Aβ42 level by Western blot (6E10 antibody) after drug administration; type: in vivo, APP/PS1 mice; details: for level of Aβ42 monomer: 7-month-old APP/PS1 mice, two weeks of P.O administration
Protocol: The hippocampal tissues from human subjects and mice were harvested and stored in a liquid nitrogen tank for biochemical assay. The tissues were homogenized in cold lysis buffer (Merck-Millipore, 20-168). The insoluble debris were removed after centrifugation at 13,000 rpm (for 10 min, at 4 °C). For GTP-bound Rac/Cdc42, lysates were incubated with GST-tagged PAK (p21-activated kinase)-PBD agarose beads (Cytoskeleton, PAK02) overnight at 4 °C. On the second day, the beads were washed three times with lysis buffer before subjecting them to SDS-PAGE (15%) and transferring them onto nitrocellulose membranes (Millipore, HATF00010). The membranes were incubated with primary antibodies (for Rac1: BD Transduction Laboratories, #610650, 1:2,000 dilution; for Cdc42, Santa Cruz Biotechnology, lot No. sc-8401, 1:500 dilution) overnight at 4 °C and with HRP-conjugated goat anti-mouse IgG (Cell Signaling Technology, #7076) for 1 h at room temperature. Intensities of the detected bands were analyzed using ImageJ software (National Institutes of Health). The total amount of Rac1 in the lysate was detected using a routine Western blot procedure. RhoA-GTP levels were measured by using the Rho-GTP monoclonal antibody (New East, lot No. 26904, Dilution: 1:1,000). Information regarding the other antibodies used is as follows: anti-RhoA (67B9), Cell Signaling, lot No. #2117, dilution: 1:1,000; anti-Actin, Clone C4, Millipore, lot No. #3018859, dilution: 1:2,000; anti-Amyloid 1-42 6E10, BioLegend, lot No. 803001, dilution: 1:1,000; anti-Phospho-PAK1 ([…])/PAK2 ([…]), Cell Signaling, lot No. #2606, dilution: 1:1,000. page 2: A Representative […] blot of AE42 detected by AE42 monoclonal antibody (6E10) after two weeks of administration (P.O) of CS7171 and JKF-034 in 7-month-old APP/PS1 mice. B The level of AE42 monomer was decreased by JKF-034. […] D Representative […] blot of total RhoA, total Cdc42, RhoA-GTP, and Cdc42-GTP after two weeks of drug administration (P.O) of CS7171 and JKF-034 in 7-month-old APP/PS1 mice. […] Data information: All values are expressed as mean r SEM.

[1] = In vitro metabolic stability in liver microsomes (species not separated); type: in vitro ADME, human, monkey, and mouse; details: all species of Table 4
Protocol: (§1) Measurements of metabolic stability can be performed with liver microsomes, which are known to contain the major drug-metabolizing enzymes and UDP-glucuronosyltransferase (Baranczewski et al., [2006]). The in vitro metabolic stability levels of CS7171 and JKF-034 were measured using human, monkey, and mouse liver microsomes. The metabolic half-time (T1/2) and intrinsic clearance (Clint) were assayed using LC-MS analysis. Ketanserin is a potent, orally effective antagonist of endogenous serotonin. Its pharmacological profile is well studied (Brogden and Sorkin, [1990]). In this study, we used ketanserin as a control. If the T1/2 of the tested compound was 30–120 min, the compound was considered to show moderate metabolism in liver microsomes. If the T1/2 value was less than 30 min, the compound was considered to be susceptible to metabolism in liver microsomes.

[2] = In vitro metabolic stability in mouse liver microsomes; type: in vitro ADME
Protocol: as §1

[3] = In vitro metabolic stability in human liver microsomes; type: in vitro ADME
Protocol: as §1

[4] = In vitro metabolic stability in monkey liver microsomes; type: in vitro ADME
Protocol: as §1

[5] = Pharmacokinetics study in CD1 mice; type: in vivo; details: for AUC0-infinity / AUC0-t / T1/2 / Tmax / F (bioavailability): CD1 mice; for AUC0-infinity / AUC0-t / T1/2 / Tmax: plasma, estimated value, n = 3; for AUC0-infinity / AUC0-t / T1/2: P.O 50 mg/kg CS7171, 40 mg/kg JKF-034 (I.V 10 and 2.5 mg/kg), route of the parameter not stated; for Tmax: P.O 50 mg/kg CS7171, 40 mg/kg JKF-034; for F (bioavailability): P.O 50 mg/kg vs I.V 10 mg/kg CS7171, P.O 40 mg/kg vs I.V 2.5 mg/kg JKF-034
Protocol: For the CS7171 and JKF-034 pharmacokinetics (PK) assays, 30 CD1 mice were purchased from JH Laboratory Animal Co. LTD (Qualification No: SCXK (SH) 2017-001220170012002565). A total of 18 CD1 mice were grouped for intravenous injection (I.V) with 10 mg/kg CS7171 and 2.5 mg/kg JKF-034. Sampling was performed at 0.083, 0.25, 0.5, 1, 3, 6 and 24 h after administration. A total of 12 CD1 mice were grouped for oral administration (P.O) of 50 mg/kg CS7171 and 40 mg/kg JKF-034. Sampling was performed at 0.25, 0.5, 1, 3, 6 and 24 h after administration. The blood samples were maintained in wet ice first and centrifuged to obtain plasma within 15 min post-sampling. Subsequently, the samples were subjected to LC-MS/MS analysis.

MDR-MDCK cell line = experiment: In vitro blood-brain barrier permeability assay; type: in vitro ADME; details: 5 μmol/L, 37 °C, 90 min
Protocol: The MDR-MDCK cell line can be used as a fast blood-brain barrier (BBB) model to aid drug discovery (Wang et al., [2005]). In this study, the MDR-MDCK cell line was used to evaluate the permeability coefficients of CS7171 and JKF-034. Briefly, CS7171 and JKF-034 were prepared to final concentrations of 5 μmol/L. The cells were dosed on the basolateral side (B-A) and apical side (A-B) and incubated at 37 °C for 90 min. Each test was performed in duplicate. The apparent permeability coefficient, Papp, was calculated using the following formula: Papp=VA/Area×Time×(drugacceptor,90-min/drugdonor,0-min×Dilution Factor
VA is the volume in the acceptor well, Area is the surface area of the membrane, Time is the total transport time in seconds, [drug]donor, 0-min is the donor drug concentration measured at 0 min; [drug]acceptor, 90-min is the acceptor drug concentration measured at 90 min; dilution factor is the degree of dilution of the donor sample before loading to LC-MS/MS.

Row | T1/2 in liver microsomes [1] | Clint [2] | T1/2 [2] [min] | Clint [3] [mL/min/kg] | T1/2 [3] [min] | Clint [4] [mL/min/kg] | T1/2 [4] [min] | AUC0-infinity [5] | AUC0-t [5] | T1/2 [5] [min] | Tmax [5] [min] | F (bioavailability) [5] [%] | Papp Mean, A-B (MDR-MDCK cell line) | Papp Mean, B-A (MDR-MDCK cell line) | Structure (SMILES) | level of Aβ42 monomer (Aβ42) | Aβ42 accumulation (Aβ42; APP/PS1 mice, Fig. S4A–C) | metabolic half-time (T1/2) of JKF-034 relative to CS7171 ([5]; CD1 mice PK)
1 | less than 30 min | 4,702.82 mL/min/kg | 1.16 | 95.92 | 18.12 | 401.14 | 5.05 | 1,692 h*ng/mL | 1,262 h*ng/mL | 551 | 30 | 19.3 | 57.33 10^−6 cm/s | 32.79 10^−6 cm/s | O=S(=O)(c1ccccc1)N1CCN(Cc2ccccc2)CC1 [JKF-034] | decreased | reduction | about ten times higher than that of CS7171
2 | less than 30 min | 477.87 mL/min/kg | 11.42 | 407.54 | 4.27 | 229.15 | 8.85 | 4,160 h*ng/mL | 4,101 h*ng/mL | 56.6 | 15 | 28.2 | 7.91 10^−6 cm/s | 3.61 10^−6 cm/s | O=C1NN(c2ccc(Cl)c(Cl)c2)C(=O)C1=Cc1ccc(O)c(N(O)O)c1 [CS7171] | did not aff ect |  | 
